Like-named read-outs stand apart in the source and are kept apart here.
How the values were obtained:
[1] = molecular target: T1, human CYP2E1 (Supersomes) (Homo sapiens, UniProt P05181); conditions: recombinant enzyme, pH 7.4
CYP2E1 [2] = molecular target: T2, CYP2E1 (Homo sapiens, UniProt P05181)
CYP2E1 [3] = molecular target: T2, CYP2E1; experiment: in vitro; conditions: recombinant enzyme, pH 7.4
CYP2E1 [4] = molecular target: T2, CYP2E1; experiment: in vitro; conditions: microsomes, pH 7.4
[5] = molecular target: T3, CYP2E1 in human liver microsomes (HLM150) (Homo sapiens, UniProt P05181); conditions: pH 7.4
[6] = molecular target: T4, CYP2E1 activity with HLM150 (Homo sapiens, UniProt P05181)
[7] = molecular target: T3, CYP2E1 in human liver microsomes (HLM150)
[8] = molecular target: T4, CYP2E1 activity with HLM150; experiment: Steady-state inhibition kinetics of 4-nitrophenol oxidation, HLM150
CYP2E1 [9] = molecular target: T2, CYP2E1; experiment: Steady-state inhibition kinetics of 4-nitrophenol oxidation, CYP2E1 Supersomes; conditions: for Ki: Ki,ap, apparent, catalytic site, 95% CI in parentheses; for Mechanism: most probable inhibition mechanism among 10 models
CYP2E1 [10] = molecular target: T2, CYP2E1; conditions: human, microsomes, pH 7.4
CYP2E1 [11] = molecular target: T2, CYP2E1; conditions: human, recombinant enzyme, pH 7.4
[12] = molecular target: T1, human CYP2E1 (Supersomes)
CYP2E1 [13] = conditions: CYP2E1 Supersomes; ref Hartman et al., 2012; cited from earlier work

T2 sequence (P05181 whole entry): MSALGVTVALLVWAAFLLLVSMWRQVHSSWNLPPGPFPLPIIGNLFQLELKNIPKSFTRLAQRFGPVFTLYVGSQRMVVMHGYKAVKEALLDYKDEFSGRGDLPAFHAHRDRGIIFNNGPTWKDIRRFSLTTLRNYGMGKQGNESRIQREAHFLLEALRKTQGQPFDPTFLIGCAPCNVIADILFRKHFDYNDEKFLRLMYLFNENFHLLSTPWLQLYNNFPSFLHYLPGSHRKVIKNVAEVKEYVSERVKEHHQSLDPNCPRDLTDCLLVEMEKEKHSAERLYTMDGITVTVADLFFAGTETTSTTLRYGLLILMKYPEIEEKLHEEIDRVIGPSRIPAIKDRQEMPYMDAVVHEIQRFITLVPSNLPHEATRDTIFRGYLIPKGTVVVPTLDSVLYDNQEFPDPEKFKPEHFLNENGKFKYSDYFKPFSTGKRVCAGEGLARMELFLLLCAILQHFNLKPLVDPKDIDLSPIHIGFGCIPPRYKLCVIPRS
T4 sequence (P05181 whole entry): as above
T3 sequence (P05181 whole entry): as above
T1 sequence (P05181 whole entry): as above

OCC(O)c1ccccc1 (racemic) [R/S-Styrene glycol, (R/S)-1,2-phenylethanediol]
IC50 [1]: 13 000 (2800–23 000) μM
Mechanism (CYP2E1 [2]): Competitive
Ki,ap (CYP2E1 [2]; recombinant enzyme): 29 000 (19 000–52 000) μM
activity at 30 min (CYP2E1 [3]): 9.2%
activity at 30 min (CYP2E1 [4]): 18%
IC50 [5]: 14 000 (6600–21 000) μM
Ki,ap [6]: 17 000 (15 000–19 000) μM
Mechanism [6]: Competitive

C=Cc1ccc(O)cc1 [4-Vinylphenol, 4-vinylphenol]
Mechanism (CYP2E1 [2]): Mixed cooperative substrate
IC50 [7]: 38 µM
IC50 at 30 min (CYP2E1 [3]): 24 µM
activity at 30 min (CYP2E1 [3]): 16%
Ki [8]: 61 µM
activity at 30 min (CYP2E1 [4]): 19%
Ki (CYP2E1 [9]): 47 µM

c1ccc(C2CO2)cc1 (stereo not shown) [Styrene oxide, 8,9-styrene oxide]
IC50 [7]: 150 µM
activity at 30 min (CYP2E1 [10]): 28%
Ki [8]: 160 µM
Ki (CYP2E1 [9]): 110 µM
Mechanism (CYP2E1 [9]): Mixed cooperative substrate
activity at 30 min (CYP2E1 [11]): 13%
IC50 [12]: 55 µM

C=Cc1ccccc1 [Styrene, styrene]
Ks (high affinity apparent binding constant during styrene metabolism) (CYP2E1 [13]): 110 µM
IC50 [7]: 45 µM
activity at 30 min (CYP2E1 [10]): 20%
Ki ([8]; Ki,ap, HLM150, apparent, catalytic site, 95% CI in parentheses): 18 µM
Ki ([8]; Ksi,ap, HLM150, apparent, cooperative site, 95% CI in parentheses): 58 µM
Ki (CYP2E1 [9]): 67 µM
Mechanism (CYP2E1 [9]): Mixed cooperative substrate
activity at 30 min (CYP2E1 [11]): 11%
IC50 [12]: 75 µM
